Data from article PMC5241705 (ACS Infectious Diseases, 2016).
“Also recorded” adds a separate entry of the source.

Tests used:
[1] = system: Mtb H37Rv attB::guaB2^Y487C; type: cell-based, Mycobacterium tuberculosis
[2] = system: Mtb SRMV2.6 attB::guaB2^Y487C; type: cell-based, Mycobacterium tuberculosis
Mtb GuaB2^Y487C = Mtb GuaB2^Y487C (Mycobacterium tuberculosis, UniProt P9WKI7, Y487C); type: biochemical

O=C(C1CCCCC1)N1CCN(S(=O)(=O)c2cccc3cnccc23)CC1 [VCC234718, N-(5-Isoquinolinylsulfonyl)-N’-cyclohexanoyl-piperazine]
MIC90 [1]: >100 µM | MIC90 [2]: >200 µM | inhibition of Mtb GuaB2^Y487C (Mtb GuaB2^Y487C): inactive; also recorded: refractory to inhibition
